Laboratory results published in patent publication US7192607B2, “Formulations for the prevention or the treatment of diseases affecting mucosae or skin, or for pregnancy prevention, and an applicator for the delivery of topical formulations into mucosal cavities” (Infectio Recherche Inc, priority 2002, dated 2007).

What was measured:
HIV-1 = conditions: Howett et al., 1999; cited from earlier work
HSV-1 (strain F) = test: Electron microscopy of Vero cells infected with HSV-1 (strain F) pretreated with SLS; format: cell-based, Herpes simplex virus type-1
Protocol: The appearance of HSV-1 (strain F) pretreated with varying SLS concentrations (50, 75 and 100 μM) for 1 h at 37° C. has been evaluated in Vero cells using electron microscopy. In brief, cells (80–90% confluent) were infected with the virus (approximately 70 PFU/ml in 14 ml) for 48 h at 37° C. in a 5% CO2 atmosphere. Cells were scrapped off from the dishes and resuspended in culture medium. Cells were centrifuged (515× g for 10 min at 4° C.) and the supernatant was decanted and cells were resuspended in approximately 500 μl medium. Cells were transferred in an eppendorf tube and centrifuged at (10,000× g for 5 min at 4° C.). The pellet was resuspended in approximately 200 μl of 20% bovine serum albumin (BSA). Few drops of 25% glutaraldehyde were added to the mixture and samples were immediately put in an ice bath to allow BSA polymerization. The pellet was then cut in 1 mm^3 samples which were then fixed in 2% glutaraldehyde in PBS for 1 h, 1% OsO4 in PBS for 1 h and then with 0.1% tannic acid in PBS for 30 min. Samples were rinsed 3 times in PBS for 5 min between each step. Samples were stained with 2% uranyl acetate in 10% ethanol for 30 min. Samples were dehydrated and embedded in Epon following routine procedures. Sections (approximately 75 nm thickness) were mounted on copper grid (200 mesh). […]

CCCCCCCCCCCCOS(=O)(=O)[O-].[Na+] [SLS, Sodium lauryl sulfate]
inactivation of HIV-1 (HIV-1): potent inactivator | cells with empty capsids in the nuclei (electron microscopy) (HSV-1 (strain F); virus pretreated with 100 μM SLS for 1 h at 37° C.): only a few cells with empty capsids in the nuclei could be detected | appearance of viral particles in infected Vero cells (electron microscopy) (HSV-1 (strain F); virus pretreated with 50, 75 and 100 μM SLS for 1 h at 37° C.): No mature nucleocapsid could be observed
